smiles,measurement,setting,value
C=CC(=O)N1CCC[C@@H](n2nc(-c3ccc(Oc4ccccc4)cc3)c3c(N)ncnc32)C1,solubility (mole fraction),"in 2-butanone, 278.15 K",0.00549
same,solubility (mole fraction),"in 2-butanone, 283.15 K",0.00628
same,solubility (mole fraction),"in 2-butanone, 288.15 K",0.00726
same,solubility (mole fraction),"in 2-butanone, 293.15 K",0.00855
same,solubility (mole fraction),"in 2-butanone, 298.15 K",0.00988
same,solubility (mole fraction),"in 2-butanone, 303.15 K",0.0114
same,solubility (mole fraction),"in 2-butanone, 308.15 K",0.0132
same,solubility (mole fraction),"in 2-butanone, 313.15 K",0.0155
same,solubility (mole fraction),"in 2-butanone, 318.15 K",0.0181
same,solubility (mole fraction),"in 2-butanone, 323.15 K",0.0211
same,solubility (mole fraction),"in MTBE, 278.15 K",0.000225
same,solubility (mole fraction),"in MTBE, 283.15 K",0.000244
same,solubility (mole fraction),"in MTBE, 288.15 K",0.000277
same,solubility (mole fraction),"in MTBE, 293.15 K",0.000305
same,solubility (mole fraction),"in MTBE, 298.15 K",0.000331
same,solubility (mole fraction),"in MTBE, 303.15 K",0.00037
same,solubility (mole fraction),"in MTBE, 308.15 K",0.000404
same,solubility (mole fraction),"in MTBE, 313.15 K",0.000454
same,solubility (mole fraction),"in MTBE, 318.15 K",0.000497
same,solubility (mole fraction),"in MTBE, 323.15 K",0.00056
same,solubility (mole fraction),"in acetone, 278.15 K",0.00362
same,solubility (mole fraction),"in acetone, 283.15 K",0.00417
same,solubility (mole fraction),"in acetone, 288.15 K",0.00487
same,solubility (mole fraction),"in acetone, 293.15 K",0.00573
same,solubility (mole fraction),"in acetone, 298.15 K",0.00673
same,solubility (mole fraction),"in acetone, 303.15 K",0.00794
same,solubility (mole fraction),"in acetone, 308.15 K",0.00921
same,solubility (mole fraction),"in acetone, 313.15 K",0.0108
same,solubility (mole fraction),"in acetone, 318.15 K",0.0125
same,solubility (mole fraction),"in acetone, 323.15 K",0.0144
same,solubility (mole fraction),"in acetonitrile, 278.15 K",0.000672
same,solubility (mole fraction),"in acetonitrile, 283.15 K",0.000819
same,solubility (mole fraction),"in acetonitrile, 288.15 K",0.000962
same,solubility (mole fraction),"in acetonitrile, 293.15 K",0.00122
same,solubility (mole fraction),"in acetonitrile, 298.15 K",0.00143
same,solubility (mole fraction),"in acetonitrile, 303.15 K",0.00174
same,solubility (mole fraction),"in acetonitrile, 308.15 K",0.0021
same,solubility (mole fraction),"in acetonitrile, 313.15 K",0.00256
same,solubility (mole fraction),"in acetonitrile, 318.15 K",0.00314
same,solubility (mole fraction),"in acetonitrile, 323.15 K",0.00367
same,solubility (mole fraction),"in ethyl acetate, 278.15 K",0.00312
same,solubility (mole fraction),"in ethyl acetate, 283.15 K",0.00357
same,solubility (mole fraction),"in ethyl acetate, 288.15 K",0.00403
same,solubility (mole fraction),"in ethyl acetate, 293.15 K",0.00475
same,solubility (mole fraction),"in ethyl acetate, 298.15 K",0.00548
same,solubility (mole fraction),"in ethyl acetate, 303.15 K",0.00618
same,solubility (mole fraction),"in ethyl acetate, 308.15 K",0.00722
same,solubility (mole fraction),"in ethyl acetate, 313.15 K",0.0083
same,solubility (mole fraction),"in ethyl acetate, 318.15 K",0.00952
same,solubility (mole fraction),"in ethyl acetate, 323.15 K",0.0107
same,solubility (mole fraction),"in isopropanol, 278.15 K",0.000409
same,solubility (mole fraction),"in isopropanol, 283.15 K",0.000547
same,solubility (mole fraction),"in isopropanol, 288.15 K",0.000734
same,solubility (mole fraction),"in isopropanol, 293.15 K",0.000947
same,solubility (mole fraction),"in isopropanol, 298.15 K",0.00123
same,solubility (mole fraction),"in isopropanol, 303.15 K",0.00165
same,solubility (mole fraction),"in isopropanol, 308.15 K",0.00217
same,solubility (mole fraction),"in isopropanol, 313.15 K",0.00278
same,solubility (mole fraction),"in isopropanol, 318.15 K",0.00363
same,solubility (mole fraction),"in isopropanol, 323.15 K",0.00455
same,solubility (mole fraction),"in n-butanol, 278.15 K",0.00127
same,solubility (mole fraction),"in n-butanol, 283.15 K",0.00163
same,solubility (mole fraction),"in n-butanol, 288.15 K",0.00206
same,solubility (mole fraction),"in n-butanol, 293.15 K",0.00261
same,solubility (mole fraction),"in n-butanol, 298.15 K",0.00331
same,solubility (mole fraction),"in n-butanol, 303.15 K",0.00423
same,solubility (mole fraction),"in n-butanol, 308.15 K",0.0054
same,solubility (mole fraction),"in n-butanol, 313.15 K",0.00694
same,solubility (mole fraction),"in n-butanol, 318.15 K",0.00894
same,solubility (mole fraction),"in n-butanol, 323.15 K",0.0115

# Reference: BigSolDB 2.1
